Source: ChEMBL document CHEMBL4828766 (J Med Chem, 2021)
pEC50, pKi: −log10 of the molar value. Square brackets hold non-standard residues; d marks the D form. Peptide text beside a SMILES is read from it. dPhe(4-I) = N[C@H](Cc1ccc(I)cc1)C(=O)O; 2Nal = N[C@@H](Cc1ccc2ccccc2c1)C(=O)O; d2Nal = N[C@H](Cc1ccc2ccccc2c1)C(=O)O

Tests used:
Assay type in all cases: functional, cell-based
[1] = molecular target: Melanocyte-stimulating hormone receptor (Mus musculus) (UniProt Q01727); assay: Agonist activity at mouse MC1R expressed in HEK293 cells assessed as induction of cAMP level at 100 uM incubated for 2 hr by alphaScreen assay relative to NDP-MSH
Melanocyte-stimulating hormone receptor (Mus musculus), sequence (Q01727 whole entry, looked up): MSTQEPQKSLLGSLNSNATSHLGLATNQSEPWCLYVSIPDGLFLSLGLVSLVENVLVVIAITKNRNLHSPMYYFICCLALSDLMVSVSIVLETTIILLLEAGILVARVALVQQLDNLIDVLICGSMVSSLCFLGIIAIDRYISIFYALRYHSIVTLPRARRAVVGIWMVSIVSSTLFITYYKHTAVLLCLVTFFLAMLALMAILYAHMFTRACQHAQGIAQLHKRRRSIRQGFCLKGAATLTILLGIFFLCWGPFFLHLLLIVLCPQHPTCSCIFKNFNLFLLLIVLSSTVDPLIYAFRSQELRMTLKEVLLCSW

[2] = molecular target: T1, Melanocortin receptor 3 (Mus musculus, UniProt P33033); assay: Agonist activity at mouse MC3R expressed in HEK293 cells assessed as induction of cAMP level incubated for 2 hr by alphaScreen assay
T1 sequence (P33033 whole entry): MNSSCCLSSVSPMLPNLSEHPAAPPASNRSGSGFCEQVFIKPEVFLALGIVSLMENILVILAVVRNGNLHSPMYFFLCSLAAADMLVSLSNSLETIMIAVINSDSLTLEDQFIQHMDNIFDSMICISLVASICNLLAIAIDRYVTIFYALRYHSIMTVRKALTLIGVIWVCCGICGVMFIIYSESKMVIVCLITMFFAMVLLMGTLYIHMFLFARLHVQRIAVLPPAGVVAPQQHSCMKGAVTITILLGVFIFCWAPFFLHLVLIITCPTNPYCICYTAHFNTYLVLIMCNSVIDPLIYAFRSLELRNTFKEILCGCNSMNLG

[3] = molecular target: Melanocortin receptor 5 (Mus musculus, UniProt P41149); assay: Agonist activity at mouse MC5R expressed in HEK293 cells assessed as induction of cAMP level at 100 uM incubated for 2 hr by alphaScreen assay
Melanocortin receptor 5, sequence (P41149 whole entry): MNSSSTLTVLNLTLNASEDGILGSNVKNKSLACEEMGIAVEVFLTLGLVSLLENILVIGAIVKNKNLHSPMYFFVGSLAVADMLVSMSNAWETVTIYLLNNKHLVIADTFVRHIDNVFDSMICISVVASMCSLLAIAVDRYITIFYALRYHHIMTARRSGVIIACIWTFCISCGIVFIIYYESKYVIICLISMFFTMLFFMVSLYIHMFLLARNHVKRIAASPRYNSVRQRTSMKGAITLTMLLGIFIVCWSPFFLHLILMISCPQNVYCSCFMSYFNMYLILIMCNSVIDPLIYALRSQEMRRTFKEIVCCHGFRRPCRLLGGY

[4] = molecular target: T1, Melanocortin receptor 3; assay: Antagonist activity at mouse melanocortin receptor 3 expressed in HEK293 cells assessed as inhibition of NDP-MSH-induced cAMP accumulation incubated for 2 hrs by cAMP Alpha-screen assay based Schild analysis; conditions: for Kb: read-out: pA2 (converted)
[5] = molecular target: T2, Melanocortin receptor 4 (Mus musculus, UniProt P56450); assay: Antagonist activity at mouse melanocortin receptor 4 expressed in HEK293 cells assessed as inhibition of NDP-MSH-induced cAMP accumulation incubated for 2 hrs by cAMP Alpha-screen assay based Schild analysis; conditions: for Kb: read-out: pA2 (converted)
T2 sequence (P56450 whole entry): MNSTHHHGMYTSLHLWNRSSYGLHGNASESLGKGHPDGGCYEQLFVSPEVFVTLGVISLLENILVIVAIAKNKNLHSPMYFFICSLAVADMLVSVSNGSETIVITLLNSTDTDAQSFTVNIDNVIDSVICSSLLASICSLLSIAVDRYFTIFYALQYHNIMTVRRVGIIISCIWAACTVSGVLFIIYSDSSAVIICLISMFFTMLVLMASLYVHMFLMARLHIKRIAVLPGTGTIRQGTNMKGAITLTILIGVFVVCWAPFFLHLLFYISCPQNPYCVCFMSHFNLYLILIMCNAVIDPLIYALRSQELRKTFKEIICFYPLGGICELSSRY

[6] = molecular target: T2, Melanocortin receptor 4; assay: Agonist activity at mouse MC4R expressed in HEK293 cells assessed as induction of cAMP level incubated for 2 hr by alphaScreen assay
[7] = molecular target: Melanocyte-stimulating hormone receptor (Mus musculus, UniProt Q01727); assay: Agonist activity at mouse MC1R expressed in HEK293 cells assessed as induction of cAMP level at 100 uM incubated for 2 hr by alphaScreen assay
Melanocyte-stimulating hormone receptor, sequence (Q01727 whole entry): as the sequence (Q01727 whole entry, looked up) above

[8] = molecular target: Melanocortin receptor 4 (Mus musculus) (UniProt P56450); assay: Agonist activity at mouse MC4R expressed in HEK293 cells assessed as induction of cAMP level at 100 uM incubated for 2 hr by alphaScreen assay relative to control
Melanocortin receptor 4 (Mus musculus), sequence (P56450 whole entry): as the sequence (P56450 whole entry) above

| SMILES | Activity [1] | pEC50 [2] | pEC50 [3] | Kb [4] | Kb [5] | pEC50 [6] | Activity ([1]; filed as agonist) | pKi [4] | pKi [5] | pEC50 [7] | Activity [8] |
| --- | --- | --- | --- | --- | --- | --- | --- | --- | --- | --- | --- |
| CC(=O)N[C@H](Cc1ccc2ccccc2c1)C(=O)N[C@H](Cc1ccc2ccccc2c1)C(=O)N[C@H](Cc1ccc(I)cc1)C(=O)N[C@H](CCCCN)C(N)=O (Ac-[d2Nal][d2Nal][dPhe(4-I)][dK]-NH2) | 20% | < 4.00 | < 4.00 | > 3.16 µM | > 3.16 µM | < 4.00 |  |  |  |  |  |
| CC(=O)N[C@H](Cc1ccc(I)cc1)C(=O)N[C@H](Cc1ccc2ccccc2c1)C(=O)N[C@@H](Cc1c[nH]c2ccccc12)C(=O)N[C@H](CCCCN)C(N)=O (Ac-[dPhe(4-I)][d2Nal]W[dK]-NH2) |  | < 4.00 | < 4.00 | 2 µM | 0.251 µM | < 4.00 | 65% | 5.70 | 6.60 |  |  |
| CC(=O)N[C@H](Cc1ccc(I)cc1)C(=O)N[C@@H](CCCNC(=N)N)C(=O)N[C@@H](Cc1c[nH]c2ccccc12)C(=O)N[C@H](CCCCN)C(N)=O (Ac-[dPhe(4-I)]RW[dK]-NH2) |  | < 4.00 | < 4.00 | 0.631 µM | 0.0251 µM | < 4.00 |  | 6.20 | 7.60 | < 4.00 |  |
| CC(=O)N[C@H](Cc1ccc(I)cc1)C(=O)N[C@H](Cc1ccc2ccccc2c1)C(=O)N[C@H](Cc1ccc2ccccc2c1)C(=O)N[C@@H](CCCNC(=N)N)C(N)=O (Ac-[dPhe(4-I)][d2Nal][d2Nal]R-NH2) |  | < 4.00 | 6.64 | > 3.16 µM | > 3.16 µM | < 4.00 |  |  |  | < 4.00 |  |
| CC(=O)N[C@H](Cc1ccc2ccccc2c1)C(=O)N[C@@H](CCCNC(=N)N)C(=O)N[C@@H](Cc1c[nH]c2ccccc12)C(=O)N[C@@H](CCCNC(=N)N)C(N)=O (Ac-[d2Nal]RWR-NH2) |  | < 4.00 | < 4.00 | 0.158 µM | 0.00501 µM |  |  |  |  |  | 20% |
| CC(=O)N[C@H](Cc1ccc(I)cc1)C(=O)N[C@@H](CCCNC(=N)N)C(=O)N[C@H](Cc1ccc(I)cc1)C(=O)N[C@H](CCCCN)C(N)=O (Ac-[dPhe(4-I)]R[dPhe(4-I)][dK]-NH2) |  | < 4.00 | < 4.00 | 0.0316 µM | 0.00316 µM | < 4.00 |  | 7.49 | 8.49 | 7.46 |  |
| CC(=O)N[C@H](Cc1ccc(I)cc1)C(=O)N[C@H](Cc1ccc2ccccc2c1)C(=O)N[C@H](Cc1ccc(I)cc1)C(=O)N[C@H](CCCCN)C(N)=O |  | < 4.00 | < 4.00 | > 3.16 µM | > 3.16 µM | < 4.00 |  |  |  | < 4.00 |  |
| CC(=O)N[C@H](Cc1ccc2ccccc2c1)C(=O)N[C@@H](CCCNC(=N)N)C(=O)N[C@H](Cc1ccc(I)cc1)C(=O)N[C@@H](CCCNC(=N)N)C(N)=O (Ac-[d2Nal]R[dPhe(4-I)]R-NH2) |  | < 4.00 | < 4.00 | 0.0794 µM | 0.00251 µM | < 4.00 |  |  |  | 7.40 |  |
| CC(=O)N[C@H](Cc1ccc(I)cc1)C(=O)N[C@H](Cc1ccc2ccccc2c1)C(=O)N[C@H](Cc1ccc2ccccc2c1)C(=O)N[C@H](CCCCN)C(N)=O (Ac-[dPhe(4-I)][d2Nal][d2Nal][dK]-NH2) |  | < 4.00 | < 4.00 | > 3.16 µM | 0.501 µM | < 4.00 |  |  |  |  |  |
| CC(=O)N[C@H](Cc1ccc2ccccc2c1)C(=O)N[C@H](Cc1ccc2ccccc2c1)C(=O)N[C@@H](Cc1c[nH]c2ccccc12)C(=O)N[C@H](CCCCN)C(N)=O (Ac-[d2Nal][d2Nal]W[dK]-NH2) | 25% | < 4.00 | < 4.00 | 1.58 µM | 0.2 µM |  |  |  |  |  | 30% |
| CC(=O)N[C@H](Cc1ccc(I)cc1)C(=O)N[C@H](Cc1ccc2ccccc2c1)C(=O)N[C@H](Cc1ccc(I)cc1)C(=O)N[C@@H](CCCNC(=N)N)C(N)=O (Ac-[dPhe(4-I)][d2Nal][dPhe(4-I)]R-NH2) |  | < 4.00 |  | > 3.16 µM | > 3.16 µM | < 4.00 | 40% |  |  |  |  |
| CC(=O)N[C@H](Cc1ccc(I)cc1)C(=O)N[C@@H](CCCNC(=N)N)C(=O)N[C@@H](Cc1ccc2ccccc2c1)C(=O)N[C@H](Cc1ccc2ccccc2c1)C(N)=O (Ac-[dPhe(4-I)]R[2Nal][d2Nal]-NH2) |  | < 4.00 | < 4.00 | > 3.16 µM | 0.2 µM | < 4.00 | 55% |  | 6.70 |  |  |
| CC(=O)N[C@H](Cc1ccc(I)cc1)C(=O)N[C@H](Cc1ccc2ccccc2c1)C(=O)N[C@@H](Cc1ccc2ccccc2c1)C(=O)N[C@@H](CCCNC(=N)N)C(N)=O (Ac-[dPhe(4-I)][d2Nal][2Nal]R-NH2) |  | < 4.00 | 6.10 | > 3.16 µM | 1.58 µM | < 4.00 |  |  | 5.80 |  |  |
| CC(=O)N[C@H](Cc1ccc2ccccc2c1)C(=O)N[C@H](Cc1ccc2ccccc2c1)C(=O)N[C@@H](Cc1ccc2ccccc2c1)C(=O)N[C@H](CCCCN)C(N)=O (Ac-[d2Nal][d2Nal][2Nal][dK]-NH2) |  | < 4.00 | < 4.00 | > 3.16 µM | > 3.16 µM | < 4.00 | 45% |  |  |  |  |
| CC(=O)N[C@H](Cc1ccc2ccccc2c1)C(=O)N[C@@H](CCCNC(=N)N)C(=O)N[C@@H](Cc1c[nH]c2ccccc12)C(=O)N[C@H](CCCCN)C(N)=O (Ac-[d2Nal]RW[dK]-NH2) |  | < 4.00 | < 4.00 | 3.16 µM | 0.02 µM | < 4.00 |  |  |  | < 4.00 |  |
| CC(=O)N[C@H](Cc1ccc2ccccc2c1)C(=O)N[C@@H](CCCNC(=N)N)C(=O)N[C@H](Cc1ccc(I)cc1)C(=O)N[C@H](CCCCN)C(N)=O |  | < 4.00 | < 4.00 | 0.126 µM | 0.00316 µM | < 4.00 |  |  |  | 6.66 |  |
| CC(=O)N[C@H](Cc1ccc2ccccc2c1)C(=O)N[C@H](Cc1ccc2ccccc2c1)C(=O)N[C@H](Cc1ccc2ccccc2c1)C(=O)N[C@H](CCCCN)C(N)=O (Ac-[d2Nal][d2Nal][d2Nal][dK]-NH2) |  | < 4.00 | < 4.00 | > 3.16 µM | > 3.16 µM | < 4.00 | 55% |  |  |  |  |
| CC(=O)N[C@H](Cc1ccc(I)cc1)C(=O)N[C@@H](CCCNC(=N)N)C(=O)N[C@H](Cc1ccc(I)cc1)C(=O)N[C@@H](CCCNC(=N)N)C(N)=O (Ac-[dPhe(4-I)]R[dPhe(4-I)]R-NH2) |  | < 4.00 | < 4.00 | 0.0398 µM | 0.00316 µM | < 4.00 |  | 7.40 | 8.49 | 8.15 |  |
| CC(=O)N[C@H](Cc1ccc(I)cc1)C(=O)N[C@H](Cc1ccc2ccccc2c1)C(=O)N[C@@H](Cc1c[nH]c2ccccc12)C(=O)N[C@@H](CCCNC(=N)N)C(N)=O |  | < 4.00 | < 4.00 | > 3.16 µM | 2.51 µM | < 4.00 |  |  | 5.60 | < 4.00 |  |
| CC(=O)N[C@H](Cc1ccc2ccccc2c1)C(=O)N[C@H](Cc1ccc2ccccc2c1)C(=O)N[C@H](Cc1ccc(I)cc1)C(=O)N[C@@H](CCCNC(=N)N)C(N)=O (Ac-[d2Nal][d2Nal][dPhe(4-I)]R-NH2) | 25% | < 4.00 |  | > 3.16 µM | > 3.16 µM | < 4.00 |  |  |  |  |  |
